Source: patent US20210128529A1, “DRUG CONTAINING PYRAZOLONE DERIVATIVE” (NOBELPHARMA CO., LTD., priority 2017, published 2021)
In brackets after ≈: the same amount, converted by molar mass.

Assay: Saturation solubility of edaravone in water
Format: physicochemical

CC1=NN(c2ccccc2)C(=O)C1 [edaravone, 3-Methyl-1-phenyl-2-pyrazolin-5-one]
solubility: 2000 µg/mL (≈ 11.5 mM)
